Test system: FLK-1 receptor
Test: FLK-1 Assay (cellular/catalytic ELISA, VEGF-stimulated phosphotyrosine)
Type: cell-based
Parameters: concentration or dose not given beside the values
In short: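 NIH3T3 C7#3 cells engineered to express Flk-1 were serum-starved overnight (0.1% FBS), then exposed to compound for 2 h at 37 °C (final dilution 1:200, 0.5% DMSO) before VEGF stimulation. Lysates captured on anti-FLK-1 antiserum plates; phosphotyrosine detected by UB40 antibody/POD-ABTS ELISA versus untreated controls.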

In order of rising “Flk Kinase % Inhibition (P.110)” value:
1. Cc1c(Br)ccc2c1C(=Cc1cc(Cl)ccc1O)C(=O)N2 [10734/C04]  −37.6%
2. Cc1c(Br)ccc2c1C(=Cc1cccc(F)c1O)C(=O)N2 [10734/C08]  −34.2%
3. O=C1Nc2ccc(I)cc2C1=Cc1ccc(O)c(Br)c1 [10734/B09]  −32.3%
4. Cc1c(Br)ccc2c1C(=Cc1ccc(O)c(Br)c1)C(=O)N2 [10734/C09]  −13.3%
5. CNS(=O)(=O)c1ccc2c(c1)C(=Cc1ccc(O)c(Br)c1)C(=O)N2 [10734/D09]  −11.6%
6. CCOc1cccc(C=C2C(=O)Nc3ccc(S(=O)(=O)NC)cc32)c1O [10734/D02]  −11.5%
7. CCN(CC)c1ccc(C=C2C(=O)Nc3ccc(Br)c(C)c32)c(O)c1 [10734/C05]  −10.3%
8. O=C1Nc2c(Br)cc(Br)cc2C1=Cc1cc(Br)cc(Br)c1O [10734/A07]  −9.4%
9. O=C1Nc2c(Br)cc(Br)cc2C1=Cc1ccc(O)c(Br)c1 [10734/A09]  −7.9%
10. O=C1Nc2c(Br)cc(Br)cc2C1=Cc1ccc([N+](=O)[O-])cc1 [10734/A06]  −6.4%
11. Cc1c(Br)ccc2c1C(=Cc1cc(Cl)cc(Cl)c1O)C(=O)N2 [10734/C03]  −5.6%
12. O=C1Nc2ccc(S(=O)(=O)N3CCOCC3)cc2C1=Cc1ccc(O)c(Br)c1 [10734/F09]  −3.7%
13. COC(=O)c1[nH]c(C)c(C=C2C(=O)Nc3c(Br)cc(Br)c(C)c32)c1C(=O)OC [10718/H07]  −3.0%
14. Cc1c(Br)ccc2c1C(=Cc1cc(Br)cc(Br)c1O)C(=O)N2 [10734/C07]  −2.7%
15. O=C1Nc2ccc(S(=O)(=O)N3CCOCC3)cc2C1=Cc1cc(Cl)ccc1O [10734/F04]  −2.6%
16. CCN(CC)c1ccc(C=C2C(=O)Nc3ccc(I)cc32)c(O)c1 [10734/B05]  −2.3%
17. Cc1c(Br)ccc2c1C(=Cc1ccc([N+](=O)[O-])cc1)C(=O)N2 [10734/C06]  −1.7%
18. CCOC(=O)c1c(C)[nH]c(C=C2C(=O)Nc3c(Br)cc(Br)c(C)c32)c1C [10718/H02]  −1.4%
19. Cc1c(Br)cc(Br)c2c1C(=Cc1cc(Cl)ccc1O)C(=O)N2 [10734/H04]  −1.3%
20. O=C1Nc2ccc(CCCl)cc2C1=Cc1cc(Cl)ccc1O [10734/G04]  −1.1%
21. O=C1Nc2ccc(I)cc2C1=Cc1ccc([N+](=O)[O-])cc1 [10734/B06]  −0.9%
22. Cc1c(Br)cc(Br)c2c1C(=Cc1ccc(Cl)c([N+](=O)[O-])c1)C(=O)N2 [10718/H08]  −0.5%
23. O=C1Nc2ccc(I)cc2C1=Cc1cccc(F)c1O [10734/B08]  −0.5%
24. CNS(=O)(=O)c1ccc2c(c1)C(=Cc1ccc([N+](=O)[O-])cc1)C(=O)N2 [10734/D06]  0.0%
25. O=C1Nc2c(Br)cc(Br)cc2C1=Cc1cccc(F)c1O [10734/A08]  0.1%
26. CCOc1cccc(C=C2C(=O)Nc3c(Br)cc(Br)c(C)c32)c1O [10734/H02]  0.5%
27. O=C1Nc2c(Br)cc(Br)cc2C1=Cc1cc(Cl)ccc1O [10734/A04]  0.6%
28. CCOC(=O)CCc1c(C(=O)OCC)[nH]c(C=C2C(=O)Nc3c(Br)cc(Br)c(C)c32)c1CC(=O)OCC [10718/H05]  1.0%
29. CCOc1cccc(C=C2C(=O)Nc3ccc(CCCl)cc32)c1O [10734/G02]  1.5%
30. CCN(CC)c1ccc(C=C2C(=O)Nc3ccc(S(=O)(=O)NC)cc32)c(O)c1 [10734/D05]  2.4%
31. O=C1Nc2ccc(I)cc2C1=Cc1cc(Cl)ccc1O [10734/B04]  2.8%
32. CCOc1cccc(C=C2C(=O)Nc3c(Br)cc(Br)cc32)c1O [10734/A02]  4.1%
33. O=C1Nc2ccc(S(=O)(=O)N3CCOCC3)cc2C1=Cc1cc(Cl)cc(Cl)c1O [10734/F03]  4.2%
34. Cc1c(Br)cc(Br)c2c1C(=Cc1cc(Cl)cc(Cl)c1O)C(=O)N2 [10734/H03]  4.6%
35. O=C1Nc2ccc(S(=O)(=O)N3CCOCC3)cc2C1=Cc1cccc(F)c1O [10734/F08]  4.8%
36. CNS(=O)(=O)c1ccc2c(c1)C(=Cc1cc(Cl)ccc1O)C(=O)N2 [10734/D04]  6.1%
37. CCOc1cccc(C=C2C(=O)Nc3ccc(S(=O)(=O)N4CCOCC4)cc32)c1O [10734/F02]  6.2%
38. O=C1Nc2c(Br)cc(Br)cc2C1=Cc1ccc(Br)s1 [10734/A11]  6.3%
39. Cc1c(Br)ccc2c1C(=Cc1ccc(Br)s1)C(=O)N2 [10734/C11]  6.3%
40. O=C1Nc2ccc(S(=O)(=O)N3CCOCC3)cc2C1=Cc1cc(Br)cc(Br)c1O [10734/F07]  6.6%
41. CCN(CC)c1ccc(C=C2C(=O)Nc3ccc(CCCl)cc32)c(O)c1 [10734/G05]  7.4%
42. CCOc1cccc(C=C2C(=O)Nc3ccc(S(=O)(=O)Nc4ccc(C(F)(F)F)cc4)cc32)c1O [10734/E02]  7.9%
43. O=C1Nc2ccc(S(=O)(=O)Nc3ccc(C(F)(F)F)cc3)cc2C1=Cc1ccc(O)c(Br)c1 [10734/E09]  8.0%
44. CCOc1cccc(C=C2C(=O)Nc3ccc(I)cc32)c1O [10734/B02]  8.5%
45. O=C1Nc2ccc(CCCl)cc2C1=Cc1ccc(O)c(Br)c1 [10734/G09]  8.5%
46. O=C1Nc2ccc(CCCl)cc2C1=Cc1ccc(Br)s1 [10734/G11]  8.7%
47. CCN(CC)c1ccc(C=C2C(=O)Nc3c(Br)cc(Br)cc32)c(O)c1 [10734/A05]  9.1%
48. CNS(=O)(=O)c1ccc2c(c1)C(=Cc1ccc(Br)s1)C(=O)N2 [10734/D11]  9.8%
49. CCN(CC)c1ccc(C=C2C(=O)Nc3ccc(S(=O)(=O)N4CCOCC4)cc32)c(O)c1 [10734/F05]  9.8%
50. O=C1Nc2c(Br)cc(Br)cc2C1=Cc1cc(Cl)cc(Cl)c1O [10734/A03]  10.1%
51. Cc1c(Br)ccc2c1C(=Cc1ccc(C(C)(C)C)cc1)C(=O)N2 [10734/C10]  10.1%
52. CCN(CC)c1ccc(C=C2C(=O)Nc3ccc(S(=O)(=O)Nc4ccc(C(F)(F)F)cc4)cc32)c(O)c1 [10734/E05]  10.6%
53. CC(C)(C)c1ccc(C=C2C(=O)Nc3ccc(CCCl)cc32)cc1 [10734/G10]  10.8%
54. O=C1Nc2ccc(S(=O)(=O)N3CCOCC3)cc2C1=Cc1ccc([N+](=O)[O-])cc1 [10734/F06]  11.0%
55. CNS(=O)(=O)c1ccc2c(c1)C(=Cc1ccc(C(C)(C)C)cc1)C(=O)N2 [10734/D10]  11.1%
56. O=C1Nc2ccc(CCCl)cc2C1=Cc1cccc(F)c1O [10734/G08]  11.6%
57. O=C1Nc2ccc(I)cc2C1=Cc1ccc(Br)s1 [10734/B11]  12.6%
58. O=C1Nc2ccc(S(=O)(=O)N3CCOCC3)cc2C1=Cc1ccc(Br)s1 [10734/F11]  13.3%
59. CNS(=O)(=O)c1ccc2c(c1)C(=Cc1cc(Br)cc(Br)c1O)C(=O)N2 [10734/D07]  14.7%
60. CC(C)(C)c1ccc(C=C2C(=O)Nc3ccc(S(=O)(=O)N4CCOCC4)cc32)cc1 [10734/F10]  14.8%
61. CC(C)(C)c1ccc(C=C2C(=O)Nc3ccc(I)cc32)cc1 [10734/B10]  15.7%
62. O=C1Nc2ccc(CCCl)cc2C1=Cc1ccc([N+](=O)[O-])cc1 [10734/G06]  16.5%
63. CNS(=O)(=O)c1ccc2c(c1)C(=Cc1cc(Cl)cc(Cl)c1O)C(=O)N2 [10734/D03]  17.4%
64. CCOC(=O)c1cc(C=C2C(=O)Nc3c(Br)cc(Br)c(C)c32)oc1C [10718/H06]  18.2%
65. CC(C)(C)c1ccc(C=C2C(=O)Nc3ccc(S(=O)(=O)Nc4ccc(C(F)(F)F)cc4)cc32)cc1 [10734/E10]  18.5%
66. O=C1Nc2ccc(I)cc2C1=Cc1cc(Cl)cc(Cl)c1O [10734/B03]  21.7%
67. O=C1Nc2ccc(CCCl)cc2C1=Cc1cc(Br)cc(Br)c1O [10734/G07]  21.9%
68. O=C1Nc2ccc(S(=O)(=O)Nc3ccc(C(F)(F)F)cc3)cc2C1=Cc1cccc(F)c1O [10734/E08]  26.6%
69. O=C1Nc2ccc(S(=O)(=O)Nc3ccc(C(F)(F)F)cc3)cc2C1=Cc1cc(Cl)cc(Cl)c1O [10734/E03]  26.9%
70. O=C1Nc2ccc(S(=O)(=O)Nc3ccc(C(F)(F)F)cc3)cc2C1=Cc1cc(Br)cc(Br)c1O [10734/E07]  27.9%
71. O=C1Nc2ccc(S(=O)(=O)Nc3ccc(C(F)(F)F)cc3)cc2C1=Cc1ccc([N+](=O)[O-])cc1 [10734/E06]  28.4%

From patent US20020026053A1, “Novel 3-(substituted) -2- indolinones compounds and use thereof as inhibitors of protein kinase activity” (priority 1997, published 2002)
